Reference: patent US6787612B1, “Resin derivatization method and uses thereof” (Dendreon Corporation, priority 1998, dated 2004)

Assays:
thrombin = conditions: in vitro assays
urokinase = urokinase (Homo sapiens, UniProt P00749); assay: urokinase inhibitory activity in in vitro assays; type: biochemical; conditions: for urokinase inhibitory activity: in vitro assays

| SMILES | thrombin inhibitory activity (thrombin) | specific inhibitory activity toward urokinase (urokinase) | urokinase inhibitory activity (urokinase) |
| --- | --- | --- | --- |
| N=C(N)NCCCC(C=O)NC(=O)CN1CCCC(NS(=O)(=O)Cc2ccccc2)C1=O (stereo not shown) [Example 8, Benzylsulfonamido-6Lactam-Gly-Argininal] | shown to have thrombin inhibitory activity | – | – |
| N=C(N)NCCCC(C=O)NC(=O)C1CCN1C(=O)C(CO)NS(=O)(=O)c1ccccc1.O=C(O)C(F)(F)F [Example 14, benzenesulfonyl-D-seryl-azetidyl-argininal, trifluoroacetate salt] | – | demonstrates specific inhibitory activity toward urokinase | shown to have urokinase inhibitory activity |
| C[C@H](NC(=O)[C@@H](CO)NCCCc1ccccc1)C(=O)N[C@H](C=O)CCCNC(=N)N.O=C(O)C(F)(F)F [Example 26, N-alpha-(3-phenylpropyl)-D-seryl-alanyl-argininal, trifluoroacetate salt] | – | – | shown to have urokinase inhibitory activity |
